Experimental data taken from patent US11981618B2, “P62 ligand compound, and composition for preventing, ameliorating or treating proteinopathies comprising the same” (AUTOTAC INC., priority 2018, dated 2024).
Entries after “also recorded” stand apart in the source; their conditions may differ.

Columns and labels:
LC3 = assay: Autophagy activity in cultured cells by immunoblotting using LC3 as a marker; assay type: cell-based, human; details: HeLa; for autophagy activity (level of LC3), control compounds: different concentrations and different times, FIG. 5
Experimental: In order to evaluate the autophagy activity efficacy by the compounds (Examples 1-19), HeLa cell line, which is a cell line derived from a cervical cancer patient, was cultured using a DMEM medium containing 10% FBS and 1% streptomycin/penicillin in an incubator with 5% carbon dioxide. As representative compounds among the present compounds, YOK-1107, YOK-4404 and YOK-1104 were selected. In order to measure autophagy activity according to the treatment with these selected representative compounds, the respective cells were dispensed into 6 well plates. Additional cultures were performed […] so that the cells were completely attached to the surface of the plate. To find the concentration at which the respective compounds could increase the phenomenon of autophagy, the test compounds were diluted at 1, 2, 5, 10 and 20 μM and treated. After treatment with the respective compounds, the cells were cultured again in a cell incubator for 24 hours, and then the cells were collected. To extract proteins from the collected cells, 100 ul of lysis buffer (20 mM Tris (pH 7.4), 150 mM NaCl, 1% Triton X-100, 2 mM NaF, 2 mM EDTA, 2 mM beta-glycerophosphate, 5 mM sodium orthovanadate, 1 mM PMSF, leupeptin, aprotinin) was injected into each sample, and cells were lysed. Based on the measured total protein concentration, a sample buffer was added to each sample and allowed to react at 100° C. for 5 minutes. 5 ul was taken from the samples after the reaction, and dispensed into each well of acrylamide gel, and then immunoblotting was performed.
In order to investigate the autophagy activity efficacy by the compounds (Examples 1-19), immunoblotting was performed in the same manner as in Experimental Example 2 using LC3 as a marker. As for the difference, in order to evaluate the treatment time required for activation and the activity retention time, as the representative compounds selected among the present compounds, 5 μM of YOK-1107, YOK-1204, YOK-1304, YOK-2204, YOK-3304, […] treated for 1, 3, 6, 12, 24, 48 hours. On the other hand, as the representative compounds selected among the compounds of the present invention, […] YOK-1107, YOK-1109, YOK-2207, YOK-2209, YT-4-1, YT-4-2, YT-6-1, YT-6-2, YT-6-8, YT-6-7, YT-9-1, YT-9-2 were treated for 24 hours.
In order to investigate the autophagy activity efficacy of control compounds, immunoblotting was performed in the same manner as in Experimental Example 2 by using LC3 as a marker. As the control compounds, compounds having the following structure were used.

p62 protein = target: T1, p62 protein (Homo sapiens, UniProt Q13501); assay: Oligomerization activity of p62 protein in cultured cells by immunoblotting; assay type: cell-based; details: HEK293 cell lysate treated with test compounds at room temperature for 2 hours; immunoblot, FIG. 2
T1 construct: endogenous in cells; host or cells: HEK293 (cell lysate treated with compounds)
T1 sequence (Q13501 whole entry): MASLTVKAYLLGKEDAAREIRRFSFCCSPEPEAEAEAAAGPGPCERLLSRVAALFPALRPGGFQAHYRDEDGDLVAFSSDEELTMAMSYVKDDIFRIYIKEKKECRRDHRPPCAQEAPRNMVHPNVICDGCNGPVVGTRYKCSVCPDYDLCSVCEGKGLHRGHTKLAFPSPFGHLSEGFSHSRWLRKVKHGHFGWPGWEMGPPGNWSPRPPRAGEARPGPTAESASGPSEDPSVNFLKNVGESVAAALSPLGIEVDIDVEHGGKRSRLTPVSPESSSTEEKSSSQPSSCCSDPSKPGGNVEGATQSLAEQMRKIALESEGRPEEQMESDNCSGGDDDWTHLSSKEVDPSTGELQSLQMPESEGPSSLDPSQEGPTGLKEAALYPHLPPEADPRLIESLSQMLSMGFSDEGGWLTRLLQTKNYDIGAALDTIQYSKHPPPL
Source text: In order to evaluate the p62 protein oligomerization activity efficacy by the compounds (Examples 1-19), HEK293 cell line, which is human embryonic kidney-derived cell, was collected. As representative compounds among the present compounds, YOK-1104, YOK-2204, YOK-3304, YOK-1204, YOK-4404, YOK-1107, YOK-1109, YOK-2207, YOK-2209, YT-4-1, YT-4-2, YT-6-1, YT-6-2, YT-6-7, YT-6-8, YT-9-1, YT-9-2 were selected. In order to measure intracellular p62 protein activation and oligomerization according to the treatment with these selected representative compounds, the respective cells were dispensed into a pi dish. The cells were collected after further culturing for 24 hours so that the cells were completely attached to the surface of the plate. 100 ul of lysis buffer (20 mM Tris, pH 7.4), 150 mM NaCl, 1% Triton X-100, 2 mM NaF, 2 mM EDTA, 2 mM beta-glycerophosphate, 5 mM sodium orthovanadate, 1 mM PMSF, leupeptin, aprotinin) were injected into each sample and the cells were lysed. Based on the measured total protein concentration, each sample was treated with test compounds at room temperature for 2 hours, and then a sample buffer was added and allowed to react at 95° C. for 10 minutes. 25 ul was taken from the samples after the reaction, and dispensed into each well of acrylamide gel, and then immunoblotting was performed.

[1] = 1, 2, 5, 10 and 20 μM, 24 hours, FIG. 3
[2] = 5 μM, treated for 1, 3, 6, 12, 24, 48 hours, FIG. 4
[3] = treated for 24 hours (concentration not given), FIG. 4

Row | SMILES | autophagy activity (level of LC3), control compounds (LC3) | p62 protein oligomerization activity (p62 monomer, oligomers and high-molecular aggregates) (p62 protein) | autophagy activity (level of LC3) (LC3; [3]) | other results
1 | O=Cc1ccc(OCc2ccccc2)c(OCc2ccccc2)c1 [Example 1101, 3,4-bis(benzyloxy)benzaldehyde, reference compound] | do not increase autophagy activity |  |  | 
2 | Oc1ccc(OCc2ccccc2)c(OCc2ccccc2)c1 [Example 1102, 3,4-bis(benzyloxy)phenol, reference compound] | do not increase autophagy activity |  |  | 
3 | c1ccc(COc2ccc(OC[C@H]3CO3)cc2OCc2ccccc2)cc1 [Example 1103, (R)-2-((3,4-bis(benzyloxy)phenoxy)methyl)oxirane, reference compound] | do not increase autophagy activity |  |  | 
4 | O=Cc1ccc(OCc2ccccc2)c(OCCc2ccccc2)c1 [Example 1201, 4-(benzyloxy)-3-phenethoxybenzaldehyde, reference compound] | do not increase autophagy activity |  |  | 
5 | Oc1ccc(OCc2ccccc2)c(OCCc2ccccc2)c1 [Example 1202, 4-(benzyloxy)-3-phenethoxyphenol, reference compound] | do not increase autophagy activity |  |  | 
6 | c1ccc(CCOc2cc(OC[C@H]3CO3)ccc2OCc2ccccc2)cc1 [Example 1203, (R)-2-((4-(benzyloxy)-3-phenethoxyphenoxy)methyl)oxirane, reference compound] | do not increase autophagy activity |  |  | 
7 | O=Cc1ccc(OCc2ccccc2)c(OCCCc2ccccc2)c1 [Example 1301, 4-(benzyloxy)-3-(3-phenylpropoxy)benzaldehyde, reference compound] | do not increase autophagy activity |  |  | 
8 | Oc1ccc(OCc2ccccc2)c(OCCCc2ccccc2)c1 [Example 1302, 4-(benzyloxy)-3-(3-phenylpropoxy)phenol, reference compound] | do not increase autophagy activity |  |  | 
9 | O=Cc1ccc(OCc2ccccc2)c(OCCCCc2ccccc2)c1 [Example 1401, 4-(benzyloxy)-3-(4-phenylbutoxy)benzaldehyde, reference compound] | do not increase autophagy activity |  |  | 
10 | Oc1ccc(OCc2ccccc2)c(OCCCCc2ccccc2)c1 [Example 1402, 4-(benzyloxy)-3-(4-phenylbutoxy)phenol, reference compound] | do not increase autophagy activity |  |  | 
11 | O=Cc1ccc(OCCc2ccccc2)c(OCCc2ccccc2)c1 [Example 2201, 3,4-diphenethoxybenzaldehyde, reference compound] | do not increase autophagy activity |  |  | 
12 | Oc1ccc(OCCc2ccccc2)c(OCCc2ccccc2)c1 [Example 2202, 3,4-diphenethoxyphenol, reference compound] | do not increase autophagy activity |  |  | 
13 | O=Cc1ccc(OCCCc2ccccc2)c(OCCCc2ccccc2)c1 [Example 3301, 3,4-bis(3-phenylpropoxy)benzaldehyde] |  |  |  | autophagy activity (level of LC3) (LC3; [1]): increasing the autophagy activity
14 | Oc1ccc(OCCCCc2ccccc2)c(OCCCCc2ccccc2)c1 [Example 4402, 3,4-bis(4-phenylbutoxy)phenol, reference compound] | do not increase autophagy activity |  |  | 
15 | CC(C)NC[C@@H](O)COc1ccc(OCc2ccccc2)c(OCc2ccccc2)c1 [YOK-1104, (R)-1-(3,4-bis(benzyloxy)phenoxy)-3-(isopropylamino)propan-2-ol] |  | increasing the p62 protein oligomerization activity |  | autophagy activity (level of LC3) (LC3; [1]): increasing the autophagy activity
16 | N=C(N)NC[C@@H](O)COc1ccc(OCc2ccccc2)c(OCc2ccccc2)c1 [YOK-1107, (R)-1-(3-(3,4-bis(benzyloxy)phenoxy)-2-hydroxypropyl)guanidine] |  | increasing the p62 protein oligomerization activity | gradually increased | autophagy activity (level of LC3) (LC3; [2]): gradually increased; also recorded: increasing the autophagy activity; autophagy activity (level of LC3) (LC3; [1]): increasing the autophagy activity
17 | N=C(N)NCCNC[C@@H](O)COc1ccc(OCc2ccccc2)c(OCc2ccccc2)c1 [YOK-1109, (R)-1-(2-((3-(3,4-bis(benzyloxy)phenoxy)-2-hydroxypropyl)amino)ethyl)guanidine] |  | increasing the p62 protein oligomerization activity | gradually increased | 
18 | CC(C)NC[C@@H](O)COc1ccc(OCc2ccccc2)c(OCCCc2ccccc2)c1 [YOK-1304, (R)-1-(4-(benzyloxy)-3-(3-phenylpropoxy)phenoxy)-3-(isopropylamino)propan-2-ol] |  |  |  | autophagy activity (level of LC3) (LC3; [2]): gradually increased; also recorded: increasing the autophagy activity
19 | N=C(N)NC[C@@H](O)COc1ccc(OCCc2ccccc2)c(OCCc2ccccc2)c1 [YOK-2207, (R)-1-(3-(3,4-diphenethoxyphenoxy)-2-hydroxypropyl)guanidine] |  | increasing the p62 protein oligomerization activity | gradually increased | 
20 | N=C(N)NCCNC[C@@H](O)COc1ccc(OCCc2ccccc2)c(OCCc2ccccc2)c1 [YOK-2209, (R)-1-(2-((3-(3,4-diphenethoxyphenoxy)-2-hydroxypropyl)amino)ethyl)guanidine] |  | increasing the p62 protein oligomerization activity | gradually increased | 
21 | CC(C)NC[C@@H](O)COc1ccc(OCc2ccc(Cl)cc2)c(OCc2ccc(Cl)cc2)c1 [YT-4-1, (R)-1-(3,4-bis((4-chlorobenzyl)oxy)phenoxy)-3-(isopropylamino)propan-2-ol] |  | increasing the p62 protein oligomerization activity | gradually increased | 
22 | CC(C)NC[C@@H](O)COc1ccc(OCc2ccc(F)cc2)c(OCc2ccc(F)cc2)c1 [YT-4-2, (R)-1-(3,4-bis((4-fluorobenzyl)oxy)phenoxy)-3-(isopropylamino)propan-2-ol] |  | increasing the p62 protein oligomerization activity | gradually increased | 
23 | OCCNC[C@@H](O)COc1ccc(OCc2ccc(Cl)cc2)c(OCc2ccc(Cl)cc2)c1 [YT-6-1] |  | increasing the p62 protein oligomerization activity | gradually increased | 
24 | OCCNC[C@@H](O)COc1ccc(OCc2ccc(F)cc2)c(OCc2ccc(F)cc2)c1 [YT-6-2] |  | increasing the p62 protein oligomerization activity | gradually increased | 
25 | OCCNC[C@@H](O)COc1cccc(OCc2ccc(Cl)cc2)c1 [YT-6-7, (R)-1-(3-((4-chlorobenzyl)oxy)phenoxy)-3-((2-hydroxyethyl)amino)propan-2-ol] |  | increasing the p62 protein oligomerization activity | gradually increased | 
